Data taken from patent US20210300940A1 (Merck Patent GmbH, priority 2018, published 2021).

What was measured:
TLR7 = target: T1, TLR7 (Homo sapiens, UniProt Q9NYK1); experiment: HEK/293 TLR7 Cell Assay; format: cell-based; settings: TLR7/NFKb HEK cells, R848 agonist 10 uM final concentration, Steady-Glo readout; read-out: TLR7 potency
T1 construct: expressed in transfected cells; host or cells: HEK/293 cells carrying TLR7 and an NF-kB luciferase reporter
T1 sequence (Q9NYK1 27-1049): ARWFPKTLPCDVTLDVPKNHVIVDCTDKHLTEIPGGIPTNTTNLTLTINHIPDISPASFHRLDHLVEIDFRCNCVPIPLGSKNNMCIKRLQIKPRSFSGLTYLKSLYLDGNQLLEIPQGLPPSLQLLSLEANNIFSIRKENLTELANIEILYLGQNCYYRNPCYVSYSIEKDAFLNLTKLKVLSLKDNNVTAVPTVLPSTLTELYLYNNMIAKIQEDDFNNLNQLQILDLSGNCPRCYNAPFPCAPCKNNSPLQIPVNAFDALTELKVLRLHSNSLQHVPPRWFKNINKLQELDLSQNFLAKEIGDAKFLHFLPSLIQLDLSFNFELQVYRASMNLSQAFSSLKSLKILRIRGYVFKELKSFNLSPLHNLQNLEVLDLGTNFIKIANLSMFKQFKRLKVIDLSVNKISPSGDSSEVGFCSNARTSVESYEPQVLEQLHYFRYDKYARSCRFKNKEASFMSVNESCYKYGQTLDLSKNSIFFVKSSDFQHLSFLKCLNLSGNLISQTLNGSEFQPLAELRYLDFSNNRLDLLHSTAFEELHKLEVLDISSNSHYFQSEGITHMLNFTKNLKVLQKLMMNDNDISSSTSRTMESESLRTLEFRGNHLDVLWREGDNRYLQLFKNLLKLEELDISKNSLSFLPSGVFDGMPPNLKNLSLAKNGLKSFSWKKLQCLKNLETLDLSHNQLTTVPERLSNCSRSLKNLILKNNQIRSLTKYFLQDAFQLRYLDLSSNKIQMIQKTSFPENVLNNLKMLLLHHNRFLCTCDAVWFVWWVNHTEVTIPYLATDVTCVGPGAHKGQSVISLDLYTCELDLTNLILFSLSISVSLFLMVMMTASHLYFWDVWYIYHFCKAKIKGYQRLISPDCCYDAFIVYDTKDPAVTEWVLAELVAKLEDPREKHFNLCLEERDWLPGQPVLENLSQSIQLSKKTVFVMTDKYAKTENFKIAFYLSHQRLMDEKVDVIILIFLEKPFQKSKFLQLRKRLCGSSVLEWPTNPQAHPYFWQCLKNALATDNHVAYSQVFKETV
How it was run: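 Compounds added to HEK cells expressing TLR7 with an NFκB reporter 30 min ahead of 10 uM R848 challenge; luciferase signal (Steady-Glo) measured after 5 h, cells having been seeded 24 h earlier at 5000 per well.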

TLR8 = target: T2, TLR8 (Homo sapiens, UniProt Q9NR97); experiment: HEK/293 TLR8 Cell Assay; format: cell-based; settings: HEK cells, R848 agonist 30 uM final concentration, Steady-Glo readout; read-out: TLR8 potency
T2 construct: expressed in transfected cells; host or cells: HEK/293 reporter cells (NF-kB luciferase)
T2 sequence (Q9NR97 27-1041): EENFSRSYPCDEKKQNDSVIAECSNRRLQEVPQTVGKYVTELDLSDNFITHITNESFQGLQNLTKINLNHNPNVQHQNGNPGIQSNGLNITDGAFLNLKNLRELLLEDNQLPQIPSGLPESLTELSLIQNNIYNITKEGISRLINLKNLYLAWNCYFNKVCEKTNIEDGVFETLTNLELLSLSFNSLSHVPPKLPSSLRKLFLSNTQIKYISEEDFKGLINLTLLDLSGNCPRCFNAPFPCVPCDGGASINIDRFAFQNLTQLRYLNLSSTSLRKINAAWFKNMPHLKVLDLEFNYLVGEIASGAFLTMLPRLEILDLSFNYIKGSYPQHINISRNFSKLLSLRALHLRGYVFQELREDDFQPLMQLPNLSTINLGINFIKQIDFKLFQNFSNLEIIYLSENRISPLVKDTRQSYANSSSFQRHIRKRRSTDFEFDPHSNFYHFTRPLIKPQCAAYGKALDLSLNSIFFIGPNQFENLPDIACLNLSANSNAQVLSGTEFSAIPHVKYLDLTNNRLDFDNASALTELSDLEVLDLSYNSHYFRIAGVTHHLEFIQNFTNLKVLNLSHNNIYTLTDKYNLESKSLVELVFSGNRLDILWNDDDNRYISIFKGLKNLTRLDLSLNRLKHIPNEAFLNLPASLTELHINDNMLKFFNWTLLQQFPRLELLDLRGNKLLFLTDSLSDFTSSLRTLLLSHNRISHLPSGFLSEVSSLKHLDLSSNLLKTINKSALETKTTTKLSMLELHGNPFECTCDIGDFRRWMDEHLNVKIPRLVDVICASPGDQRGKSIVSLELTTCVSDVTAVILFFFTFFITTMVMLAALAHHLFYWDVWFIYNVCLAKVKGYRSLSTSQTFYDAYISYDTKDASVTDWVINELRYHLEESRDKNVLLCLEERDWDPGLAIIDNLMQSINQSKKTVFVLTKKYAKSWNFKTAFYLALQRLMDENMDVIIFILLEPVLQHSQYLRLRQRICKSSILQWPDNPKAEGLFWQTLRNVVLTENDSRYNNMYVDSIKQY

SMILES	IC50 (TLR7) [nM]	IC50 (TLR8) [nM]
C[C@H]1C[C@@H](NCCCS(N)(=O)=O)CN(c2ccc(C#N)c3nccnc23)C1 [Example 34, 3-[(3R,5S)-1-(8-Cyano-quinoxalin-5-yl)-5-methyl-piperidin-3-ylamino]-propane-1-sulfonic acid amide]	< 75	< 75
C[C@H]1C[C@@H](NCC(O)CO)CN(c2cnc(C#N)c3ncccc23)C1 (stereo partly drawn) [Example 35, 5-[(3R,5S)-3-(2,3-Dihydroxy-propylamino)-5-methyl-piperidin-1-yl]-naphthyridine-8-carbonitrile]	> 150	> 150
C[C@H]1C[C@@H](NCCC(=O)NO)CN(c2ccc(C(F)(F)F)c3ncccc23)C1 [Example 36, N-Hydroxy-3-[(3R,5S)-5-methyl-1-(8-trifluoromethyl-quinolin-5-yl)-piperidin-3-ylamino]-propionamide]	< 75	< 75
CC(=O)NCCN[C@@H]1C[C@H](C)CN(c2ccc(C(F)(F)F)c3ncccc23)C1 [Example 37, N-{2-[(3R,5S)-5-Methyl-1-(8-trifluoromethyl-quinolin-5-yl)-piperidin-3-ylamino]-ethyl}-acetamide formic acid]	< 75	< 75
N#Cc1ccc(N2C[C@H](NCCCS(N)(=O)=O)C[C@H](C(F)(F)F)C2)c2cccnc12 [Example 38, 3-[(3R,5S)-1-(8-Cyano-quinolin-5-yl)-5-trifluoromethyl-piperidin-3-ylamino]-propane-1-sulfonic acid amide]	> 150	75 to 150
C[C@H]1C[C@@H](NCCNS(C)(=O)=O)CN(c2ccc(C#N)c3nccnc23)C1 [Example 41, N-{2-[(3R,5S)-1-(8-Cyano-quinoxalin-5-yl)-5-methyl-piperidin-3-ylamino]-ethyl}-methanesulfonamide]	< 75	< 75
C[C@H]1C[C@@H](NCC2CCS(=O)(=O)C2)CN(c2ccc(C#N)c3nccnc23)C1 (stereo partly drawn) [Example 42, 8-{(3R,5S)-3-[(1,1-Dioxo-tetrahydro-1lambda6-thiophen-3-ylmethyl)-amino]-5-methyl-piperidin-1-yl}-quinoxaline-5-carbonitrile]	75 to 150	75 to 150
C[C@H]1C[C@@H](NCCC2CS(=O)(=O)C2)CN(c2ccc(C#N)c3nccnc23)C1 [Example 43, 8-{(3R,5S)-3-[2-(1,1-Dioxo-1lambda6-thietan-3-yl)-ethylamino]-5-methyl-piperidin-1-yl}-quinoxaline-5-carbonitrile]	< 75	< 75
CCS(=O)(=O)NCCN[C@@H]1C[C@H](C)CN(c2ccc(C#N)c3nccnc23)C1 [Example 46, Ethane sulfonic acid {2-[(3R,5S)-1-(8-cyano-quinoxalin-5-yl)-5-methyl-piperidin-3-ylamino]-ethyl}-amide]	75 to 150	< 75
C[C@H]1C[C@@H](NCC2COC2)CN(c2ccc(C#N)c3nccnc23)C1 [Example 47, 8-{(3S,5R)-3-Methyl-5-[(oxetan-3-ylmethyl)-amino]-piperidin-1-yl}-quinoxaline-5-carbonitrile]	< 75	< 75
CC(=O)NCCN[C@@H]1C[C@H](C)CN(c2ccc(C#N)c3nccnc23)C1 [Example 49, N-{2-[(3R,5S)-1-(8-Cyano-quinoxalin-5-yl)-5-methyl-piperidin-3-ylamino]-ethyl}-acetamide]	< 75	< 75

Results, then the molecule that gave them:

IC50 (TLR7) [nM]	IC50 (TLR8) [nM]	SMILES
< 75	< 75	C[C@H]1C[C@@H](NCCCS(N)(=O)=O)CN(c2ccc(C(F)(F)F)c3ncccc23)C1 [Example 39, 3-[(3R,5S)-5-Methyl-1-(8-trifluoromethyl-quinolin-5-yl)-piperidin-3-ylamino]-propane-1-sulfonic acid amide]
> 150	75 to 150	N#Cc1ccc(N2C[C@H](NCCNC(N)=O)C[C@H](C(F)(F)F)C2)c2cccnc12 [Example 40, {2-[(3R,5S)-1-(8-Cyano-quinolin-5-yl)-5-trifluoromethyl-piperidin-3-ylamino]-ethyl}-urea]
< 75	75 to 150	CC(=O)NCCN[C@@H]1C[C@H](C(F)(F)F)CN(c2ccc(C#N)c3ncccc23)C1 [Example 44, N-{2-[(3R,5S)-1-(8-Cyano-quinolin-5-yl)-5-trifluoromethyl-piperidin-3-ylamino]-ethyl}-acetamide]
< 75	< 75	C[C@H]1C[C@@H](NCCNC(N)=O)CN(c2ccc(C(F)(F)F)c3ncccc23)C1 [Example 45, {2-[(3R,5S)-5-Methyl-1-(8-trifluoromethyl-quinolin-5-yl)-piperidin-3-ylamino]-ethyl}-urea]
< 75	< 75	C[C@H]1C[C@@H](NCC2CCC(=O)N2)CN(c2ccc(C(F)(F)F)c3ncccc23)C1 (stereo partly drawn) [Example 48, 5-{[(3R,5S)-5-Methyl-1-(8-trifluoromethyl-quinolin-5-yl)-piperidin-3-ylamino]-methyl}-pyrrolidin-2-one]
< 75	< 75	C[C@H]1C[C@@H](NCC2(O)CCOCC2)CN(c2ccc(C(F)(F)F)c3ncccc23)C1 [Example 50, 4-{[(3R,5S)-5-Methyl-1-(8-trifluoromethyl-quinolin-5-yl)-piperidin-3-ylamino]-methyl}-tetrahydro-pyran-4-ol]
< 75	< 75	C[C@H]1C[C@@H](NCC(=O)N2CC(O)C2)CN(c2ccc(C(F)(F)F)c3ncccc23)C1 [Example 51, 1-(3-Hydroxy-azetidin-1-yl)-2-[(3R,5S)-5-methyl-1-(8-trifluoromethyl-quinolin-5-yl)-piperidin-3-ylamino]-ethanone]
< 75	< 75	CONC(=O)CCCN[C@@H]1C[C@H](C)CN(c2ccc(C(F)(F)F)c3nccnc23)C1 [Example 52, N-Methoxy-4-[(3R,5S)-5-methyl-1-(8-trifluoromethyl-quinoxalin-5-yl)-piperidin-3-ylamino]-butyramide]
< 75	75 to 150	C[C@H]1C[C@@H](NCCC(=O)N2CC(O)C2)CN(c2ccc(C(F)(F)F)c3ncccc23)C1 [Example 53, 1-(3-Hydroxy-azetidin-1-yl)-3-[(3R,5S)-5-methyl-1-(8-trifluoromethyl-quinolin-5-yl)-piperidin-3-ylamino]-propan-1-one]
< 75	< 75	C[C@H]1C[C@@H](NCCC(=O)NC2CS(=O)(=O)C2)CN(c2ccc(C(F)(F)F)c3ncccc23)C1 [Example 54, N-(1,1-Dioxo-1lambda6-thietan-3-yl)-3-[(3R,5S)-5-methyl-1-(8-trifluoromethyl-quinolin-5-yl)-piperidin-3-ylamino]-propionamide]
